Results on two compounds are retold here after patent US12617757B2, “Compounds and modules for inhibition of pre-miR-21 and their use in treatment of certain cancers” (University of Florida Research Foundation, Incorporated, priority 2019, dated 2026).

In one data set the test system is pre-miR-21. Briefly: Cellular Chem-CLIP / C-Chem-CLIP in MDA-MB-231 cells. The class given is cell-based, human. As to the method: Cellular Chem-CLIP/C-Chem-CLIP. The MDA-MB-231 cells were grown to ˜70% confluency as monolayers in 60 mm dishes. The cells were treated with Chem-CLIP compounds (8 or 9) and/or non-cross-linking competitors (1 or 2) for 48 h. Total RNA was extracted using a Quick-RNA MiniPrep Kit (Zymo Research) per the manufacturer's protocol. Approximately 20-30 μg of total RNA was then incubated with 100 μL of streptavidin-agarose beads (Sigma-Aldrich) and shaken for 1 h at room temperature. The solution was removed beads washed six times with 1×PBS. The RNA bound to beads was released, purified, and used for RT-qPCR as previously described^23. Relative fold enrichment of the measured RNA before and after pulldown was measured using equation 3 (Eq. 3): Relative Fold Enrichment=2^−(ΔC^t^before pulldown−ΔC^t^after pulldown) (Eq. 3)
where “ΔCt before pulldown” is the difference between the Ct values for the RNA of interest and a housekeeping gene in total RNA from cells and “ΔCt after pulldown” is the difference between the Ct values for the RNA of interest and the same housekeeping gene in RNA after pulldown.

Another data set deals with pre-miR-21 WT RNA. Briefly: In vitro Dicer processing of pre-miR-21 WT. The class given is biochemical. An excerpt:
In vitro Dicer processing. […] Cleavage products were resolved on a denaturing 15% polyacrylamide gel, which was imaged using a Molecular Dynamics Typhoon phosphorimager and quantified with Bio-Rad's QuantityOne software, normalizing to full length RNA.

A further data set concerns IFN-γ. As to the kind of experiment: IFN-γ ELISA of MDA-MB-231 supernatant. The class given is cell-based, human. How it is done:
Measurement of IFN-γ: The MDA-MB-231 cells were plated into a 24-well plate and allowed to grow to 70% confluency. Cells were transfected with 2′-5′ A4 using Lipofectamine RNAiMAX (Life Technologies). Alternatively, MDA-MB-231 cells were mock transfected and treated with vehicle (DMSO) or 5 (5, 50, 500, 5000 nM). Cell culture supernatant was removed at 24 h. The Human IFN-γ ELISA Kit (Bon Opus Biosciences: BE010020) was used to measure interferon gamma levels from the supernatants, per the manufacturer's instructions.
In general terms: ELISA stands for enzyme-linked immunosorbent assay.

In data set [1] the test system is proteome of MDA-MB-231 cells. As to the kind of experiment: Global proteomics profiling (LC-MS/MS) of MDA-MB-231 cells. In kind it is cell-based, human. The settings on record: 50 nM, versus all proteins. How it is done: Global proteomics profiling using LC-MS/MS. The MDA-MB-231 cells treated with vehicle (DMSO) or 5 (50 nM) were washed with PBS, harvested by scraping, centrifuged at 1500×g for five minutes at 4° C. and then resuspended in PBS. Cells were lysed by sonication and lysate protein concentrations were determined using a Bradford assay (Bio-Rad). Protein samples (40 μg) were denatured with 6 M urea in 50 mM NH4HCO3, reduced with 10 mM tris(2-carboxyethyl)phosphine hydrochloride (TCEP) for 30 minutes, and then alkylated with 25 mM iodoacetamide for 30 minutes in the dark. Samples were diluted to 2 M urea with 50 mM NH4HCO3, and digested with trypsin (2 μL of 0.5 μg/μL) in the presence of 1 mM CaCl2) for 12 hours at 37° C. […] Samples were analyzed by LC-MS/MS (see below) and the MS data was processed with MaxQuant and Proteome Discoverer (see below).
LC-MS/MS analysis: Peptides were resuspended in water with 0.1% formic acid (FA) and analyzed using an EASY-nLC 1200 nano-UHPLC coupled to Q Exactive HF-X Quadrupole-Orbitrap mass spectrometer (Thermo Scientific). […]
MaxQuant analysis: The MS data was analyzed with MaxQuant (V1.6.1.0)^27 and searched against the human proteome (Uniprot) and a common list of contaminants (included in MaxQuant). […] The minimum peptide length was set to 6 amino acids and peptide re-quantification and label-free quantification (MaxLFQ) were enabled. […]

As to `CCCN(CC(=O)N(CCC)CC(=O)N(CCC)CC(=O)N(CC(N)=O)Cc1cn(CCCNC(=O)CCCOc2ccc(-c3nc4cc(-c5ccc(N6CCN(C)CC6)cc5)ccc4[nH]3)cc2)nn1)C(=O)CNCc1cn(CCCNC(=O)CCCOc2ccc(-c3nc4cc(-c5ccc(N6CCN(C)CC6)cc5)ccc4[nH]3)cc2)nn1` [Compound 2], the “potency in occupying pre-miR-21 in cells versus Formula 1 (C-Chem-CLIP)” value in the data set with pre-miR-21 (MDA-MB-231) was found to be 20 fold. Further, the “competition of Chem-CLIP enrichment (C-Chem-CLIP)” value in the data set with pre-miR-21 (MDA-MB-231, versus probe 8) was “enrichment is depleted”. Besides, the “inhibition of / protection from Dicer processing” value with pre-miR-21 WT RNA was “Protection with compound is observed at U23 (boxes marked with arrows) and U26 and U27”.

Turning to `CCCN(CC(=O)N(CCC)CC(=O)N(CCC)CC(=O)N(CC(=O)NCCOCCOCCOCCOc1ccc(C=C2SC(Nc3ccccc3)=C(C(=O)OCC)C2=O)cc1O)Cc1cn(CCCNC(=O)CCCOc2ccc(-c3nc4cc(-c5ccc(N6CCN(C)CC6)cc5)ccc4[nH]3)cc2)nn1)C(=O)CN(Cc1cn(CCCNC(=O)CCCOc2ccc(-c3nc4cc(-c5ccc(N6CCN(C)CC6)cc5)ccc4[nH]3)cc2)nn1)C(C)=O` [Compound 5], the “IFN-7 ELISA” value in the data set on IFN-γ is recorded as “no activation of the innate antiviral immune response”. Further, the “median log fold-change of predicted downstream protein targets of miR-21” value in data set [1] is “significantly upregulated relative to all proteins”.
